Measured values: patent US9247759B2, “Identification of human T2R receptors that respond to bitter compounds that elicit the bitter taste in compositions, and the use thereof in assays to identify compounds that inhibit (block) bitter taste in compositions and use thereof” (SENOMYX, INC., priority 2007, dated 2016)
Where two headings read alike, the source gives them in different places.

What was measured:
[1] = target: hT2R61 (Homo sapiens (Human), UniProt P59537); experiment: hT2R panel inhibition, transient HEK293 G16g44, agonist Aristolochic Acid 25 nM; assay type: cell-based; conditions: HEK293, compound at 25 μM; receptor activated to EC80 with the corresponding agonist; read-out: screening result against bitter receptor 61
Procedure, shortened: (§1)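 Functional inhibition format: single hT2R transient expression in a G16g44-stable line, bitter agonist at EC80, test compound effect expressed as reduction in receptor activity.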

[2] = target: hT2R10 (Homo sapiens (Human), UniProt Q9NYW0); experiment: hT2R panel inhibition, transient HEK293 G16g44, agonist Strychnine 50 μM; assay type: cell-based; conditions: HEK293, read-out: screening result against bitter receptor 10, compound at 25 μM; receptor activated to EC80 with the corresponding agonist
[3] = target: hT2R3 (Homo sapiens (Human), UniProt Q9NYW6); experiment: hT2R panel inhibition, transient HEK293 G16g44, agonist Chloroquine pH6.5 50 μM; assay type: cell-based; conditions: HEK293, compound at 25 μM; receptor activated to EC80 with the corresponding agonist; read-out: screening result against bitter receptor 3
Procedure, shortened: as §1

[4] = target: hT2R4 (Homo sapiens (Human), UniProt Q9NYW5); experiment: hT2R panel inhibition, transient HEK293 G16g44, agonist Chloroquine pH6.5 5 mM; assay type: cell-based; conditions: HEK293, compound at 25 μM; receptor activated to EC80 with the corresponding agonist; class symbols; read-out: screening result against bitter receptor 4
Protocol: (§2) Specifically, in order to evaluate the inhibitory selectivity of the Compound C compound, this compound was tested against 22 human T2Rs which were deorphaned by Senomyx. These receptors and the bitter ligands that activate these human T2Rs are reported in earlier patent applications which are incorporated by reference herein. These 22 human T2Rs are hT2R1, 3, 4, 5, 7, 8, 9, 10, 13, 14, 16, 44, 51, 54, 55, 61, 63, 64, 65, 67, 71 and 75. The amino acid and nucleic acid sequences of all of these T2Rs may be found in these earlier patent applications. These human T2Rs were each individually transiently transfected into HEK293 cells that stably express the promiscuous G protein G16g44 and functional assays were effected using these receptors as disclosed in these same patent applications. […] The ligands were used at EC80 concentration levels. The list of bitter ligands utilized and the tested ligand concentrations are contained in Table 5 of this example.
(§3) Relating to the foregoing, FIG. 5 contains experimental results wherein Compound C was tested with different agonist compounds. The inhibition activity is represented by the reduction of receptor activity in the presence of Compound C. […] These 13 hT2Rs are hT2R3, 7, 10, 14, 16, 44, 51, 55, 61, 63, 64, 65, and 71.

[5] = tested on: hT2R54; experiment: hT2R panel inhibition, transient HEK293 G16g44, agonist Ranitidine 5 mM; assay type: cell-based, human; conditions: compound at 25 μM; receptor activated to EC80 with the corresponding agonist
Procedure, shortened: as §1

[6] = target: hT2R75 (Homo sapiens (Human), UniProt P59540); experiment: hT2R panel inhibition, transient HEK293 G16g44, agonist Strychnine 1 μM; assay type: cell-based; conditions: HEK293, read-out: screening result against bitter receptor 75, compound at 25 μM; receptor activated to EC80 with the corresponding agonist
Protocol: as §2, §3

[7] = target: hT2R51 (Homo sapiens (Human), UniProt P59533); experiment: hT2R panel inhibition, transient HEK293 G16g44, agonist Prop 2.5 μM; assay type: cell-based; conditions: HEK293, compound at 25 μM; receptor activated to EC80 with the corresponding agonist; read-out: screening result against bitter receptor 51
Procedure, shortened: as §1

[8] = tested on: hT2R65; experiment: hT2R panel inhibition, transient HEK293 G16g44, agonist Oleuropein 1 mM; assay type: cell-based, human; conditions: compound at 25 μM; receptor activated to EC80 with the corresponding agonist
Procedure, shortened: as §1

[9] = target: T1, hT2R14 (Homo sapiens (Human), UniProt Q9NYV8); experiment: hT2R panel inhibition, transient HEK293 G16g44, agonist Aristolochic Acid 2 μM; assay type: cell-based; conditions: HEK293, compound at 25 μM; receptor activated to EC80 with the corresponding agonist; read-out: screening result against bitter receptor 14
Procedure, shortened: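 Agonist challenge was at EC80, with 0.5 mM andrographolide on hT2R8 and 2 μM aristolochic acid on hT2R14. Inhibition was measured in functional assays in HEK293 cells that stably carry the promiscuous G protein G16g44 and were transiently transfected with the individual receptor.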

[10] = target: hT2R71 (Homo sapiens (Human), UniProt P59536); experiment: hT2R panel inhibition, transient HEK293 G16g44, agonist Picric Acid 10 μM; assay type: cell-based; conditions: HEK293, compound at 25 μM; receptor activated to EC80 with the corresponding agonist; read-out: screening result against bitter receptor 71
Procedure, shortened: as §1

[11] = tested on: hT2R55; experiment: hT2R panel inhibition, transient HEK293 G16g44, agonist Cinchonine 150 μM; assay type: cell-based, human; conditions: compound at 25 μM; receptor activated to EC80 with the corresponding agonist
Procedure, shortened: as §1

[12] = target: hT2R64 (Homo sapiens (Human), UniProt P59538); experiment: hT2R panel inhibition, transient HEK293 G16g44, agonist Aristolochic Acid 1 μM; assay type: cell-based; conditions: HEK293, compound at 25 μM; receptor activated to EC80 with the corresponding agonist; read-out: screening result against bitter receptor 64
Procedure, shortened: as §1

[13] = target: T1, hT2R14; experiment: hT2R14 antagonist high-throughput FLIPR assay, stable cell line with G16g44, agonist aristolochic acid; assay type: cell-based
Procedure, shortened: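 Compounds were co-applied with 3 μM aristolochic acid, a dose set to reach 70-80% of maximal hT2R14 activation. Read-out was FLIPR fluorescence in a stable HEK293 line co-expressing hT2R14 and G16g44.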

[14] = tested on: hT2R44; experiment: hT2R panel inhibition, transient HEK293 G16g44, agonist Denatonium 0.5 μM; assay type: cell-based, human; conditions: compound at 25 μM; receptor activated to EC80 with the corresponding agonist
Procedure, shortened: as §1

[15] = target: hT2R16 (Homo sapiens (Human), UniProt Q9NYV7); experiment: hT2R panel inhibition, transient HEK293 G16g44, agonist Salicin 1 mM; assay type: cell-based; conditions: HEK293, compound at 25 μM; receptor activated to EC80 with the corresponding agonist; read-out: screening result against bitter receptor 16
Procedure, shortened: as §1

[16] = tested on: hT2R63; experiment: hT2R panel inhibition, transient HEK293 G16g44, agonist Caffeine 1 mM or Andrographolide 100 μM; assay type: cell-based, human; conditions: compound at 25 μM; receptor activated to EC80 with the corresponding agonist
Procedure, shortened: as §1

[17] = target: hT2R7 (Homo sapiens (Human), UniProt Q9NYW3); experiment: hT2R panel inhibition, transient HEK293 G16g44, agonist Chloroquine pH6.5 10 mM; assay type: cell-based; conditions: HEK293, compound at 25 μM; receptor activated to EC80 with the corresponding agonist; read-out: screening result against bitter receptor 7
Procedure, shortened: as §1

[18] = tested on: hT2R67; experiment: hT2R panel inhibition, transient HEK293 G16g44, agonist Andrographolide 5 μM; assay type: cell-based, human; conditions: compound at 25 μM; receptor activated to EC80 with the corresponding agonist
Procedure, shortened: as §1

[19] = read-out: IC50 on hT2R14 bitter receptor

Chain of hT2R64 (P59538 whole entry): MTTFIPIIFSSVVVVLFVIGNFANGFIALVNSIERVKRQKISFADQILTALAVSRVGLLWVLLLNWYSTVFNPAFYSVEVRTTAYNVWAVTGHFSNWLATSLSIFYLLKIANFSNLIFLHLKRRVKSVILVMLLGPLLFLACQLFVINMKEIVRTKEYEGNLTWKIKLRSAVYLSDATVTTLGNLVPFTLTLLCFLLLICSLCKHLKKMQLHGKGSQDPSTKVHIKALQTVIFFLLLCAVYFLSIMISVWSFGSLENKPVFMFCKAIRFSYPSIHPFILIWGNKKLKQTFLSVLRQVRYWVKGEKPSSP
Chain of hT2R71 (P59536 whole entry): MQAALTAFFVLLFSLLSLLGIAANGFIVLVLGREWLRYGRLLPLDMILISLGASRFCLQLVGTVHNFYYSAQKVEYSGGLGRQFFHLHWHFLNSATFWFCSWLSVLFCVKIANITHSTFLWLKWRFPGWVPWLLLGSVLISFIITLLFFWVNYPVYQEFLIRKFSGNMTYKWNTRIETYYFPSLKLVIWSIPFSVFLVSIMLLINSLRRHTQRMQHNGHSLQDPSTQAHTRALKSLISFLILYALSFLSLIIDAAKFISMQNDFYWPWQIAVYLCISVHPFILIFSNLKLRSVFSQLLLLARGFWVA
Chain of hT2R3 (Q9NYW6 whole entry): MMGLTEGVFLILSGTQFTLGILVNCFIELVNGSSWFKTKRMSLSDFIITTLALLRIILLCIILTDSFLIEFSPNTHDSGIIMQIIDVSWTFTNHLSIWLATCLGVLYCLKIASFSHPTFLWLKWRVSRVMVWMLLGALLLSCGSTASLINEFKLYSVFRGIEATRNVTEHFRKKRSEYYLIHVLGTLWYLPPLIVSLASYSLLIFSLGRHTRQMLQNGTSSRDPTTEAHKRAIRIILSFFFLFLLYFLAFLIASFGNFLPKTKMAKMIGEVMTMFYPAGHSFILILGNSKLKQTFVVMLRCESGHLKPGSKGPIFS
Chain of hT2R16 (Q9NYV7 whole entry): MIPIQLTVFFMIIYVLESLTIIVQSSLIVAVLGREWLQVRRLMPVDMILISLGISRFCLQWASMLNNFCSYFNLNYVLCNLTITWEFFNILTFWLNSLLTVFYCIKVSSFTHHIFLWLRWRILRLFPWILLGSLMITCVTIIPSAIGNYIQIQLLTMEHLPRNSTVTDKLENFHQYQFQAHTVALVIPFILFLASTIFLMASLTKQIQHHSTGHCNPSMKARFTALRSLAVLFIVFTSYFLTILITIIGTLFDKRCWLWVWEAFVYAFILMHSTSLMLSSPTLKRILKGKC
Chain of hT2R75 (P59540 whole entry): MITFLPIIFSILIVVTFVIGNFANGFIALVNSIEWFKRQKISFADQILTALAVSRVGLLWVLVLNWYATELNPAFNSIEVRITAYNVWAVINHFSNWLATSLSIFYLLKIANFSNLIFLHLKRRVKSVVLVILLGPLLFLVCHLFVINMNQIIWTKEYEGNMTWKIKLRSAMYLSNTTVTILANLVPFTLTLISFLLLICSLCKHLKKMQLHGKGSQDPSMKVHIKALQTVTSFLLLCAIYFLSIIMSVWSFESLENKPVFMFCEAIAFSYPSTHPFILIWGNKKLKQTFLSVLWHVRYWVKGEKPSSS
T1 sequence (Q9NYV8 whole entry): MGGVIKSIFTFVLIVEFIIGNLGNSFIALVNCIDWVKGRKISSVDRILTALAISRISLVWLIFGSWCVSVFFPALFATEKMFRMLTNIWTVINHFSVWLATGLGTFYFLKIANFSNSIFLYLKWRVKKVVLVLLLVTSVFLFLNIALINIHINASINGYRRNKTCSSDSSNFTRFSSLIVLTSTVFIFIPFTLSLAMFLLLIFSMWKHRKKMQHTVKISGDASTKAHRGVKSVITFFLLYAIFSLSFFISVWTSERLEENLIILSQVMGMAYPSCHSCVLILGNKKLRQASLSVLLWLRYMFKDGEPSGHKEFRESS
Chain of hT2R4 (Q9NYW5 whole entry): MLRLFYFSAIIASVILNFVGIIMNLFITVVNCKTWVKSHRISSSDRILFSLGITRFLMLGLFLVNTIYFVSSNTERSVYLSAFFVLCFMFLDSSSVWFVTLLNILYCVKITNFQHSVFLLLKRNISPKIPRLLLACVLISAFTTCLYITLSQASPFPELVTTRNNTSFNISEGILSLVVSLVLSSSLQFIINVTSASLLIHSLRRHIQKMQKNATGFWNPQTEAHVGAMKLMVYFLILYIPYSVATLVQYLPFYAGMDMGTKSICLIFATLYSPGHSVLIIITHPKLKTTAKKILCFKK
Chain of hT2R7 (Q9NYW3 whole entry): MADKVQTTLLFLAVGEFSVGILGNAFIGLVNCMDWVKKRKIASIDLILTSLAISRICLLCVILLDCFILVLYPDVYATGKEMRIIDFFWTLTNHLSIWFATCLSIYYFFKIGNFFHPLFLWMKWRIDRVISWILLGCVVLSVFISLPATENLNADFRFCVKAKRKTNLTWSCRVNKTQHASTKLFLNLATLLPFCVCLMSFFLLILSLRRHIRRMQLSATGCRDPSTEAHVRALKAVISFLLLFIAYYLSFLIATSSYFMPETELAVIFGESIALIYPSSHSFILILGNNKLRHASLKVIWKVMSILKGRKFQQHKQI
Chain of hT2R61 (P59537 whole entry): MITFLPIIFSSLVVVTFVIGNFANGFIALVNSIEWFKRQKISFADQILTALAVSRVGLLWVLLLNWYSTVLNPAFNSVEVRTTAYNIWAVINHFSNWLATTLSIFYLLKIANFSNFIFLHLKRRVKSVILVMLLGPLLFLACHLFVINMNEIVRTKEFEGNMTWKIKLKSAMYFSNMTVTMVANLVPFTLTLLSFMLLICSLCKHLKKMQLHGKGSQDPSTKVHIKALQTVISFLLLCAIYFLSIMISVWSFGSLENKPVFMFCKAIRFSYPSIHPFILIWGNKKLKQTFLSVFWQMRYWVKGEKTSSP
Chain of hT2R10 (Q9NYW0 whole entry): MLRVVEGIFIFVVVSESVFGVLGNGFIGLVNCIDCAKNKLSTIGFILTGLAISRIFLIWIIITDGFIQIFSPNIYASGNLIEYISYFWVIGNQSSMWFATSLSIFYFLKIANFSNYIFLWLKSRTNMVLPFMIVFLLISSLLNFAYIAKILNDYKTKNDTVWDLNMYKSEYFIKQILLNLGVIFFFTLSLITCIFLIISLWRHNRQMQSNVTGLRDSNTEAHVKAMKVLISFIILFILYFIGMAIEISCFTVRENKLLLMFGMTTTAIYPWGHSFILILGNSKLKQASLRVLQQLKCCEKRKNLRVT
Chain of hT2R51 (P59533 whole entry): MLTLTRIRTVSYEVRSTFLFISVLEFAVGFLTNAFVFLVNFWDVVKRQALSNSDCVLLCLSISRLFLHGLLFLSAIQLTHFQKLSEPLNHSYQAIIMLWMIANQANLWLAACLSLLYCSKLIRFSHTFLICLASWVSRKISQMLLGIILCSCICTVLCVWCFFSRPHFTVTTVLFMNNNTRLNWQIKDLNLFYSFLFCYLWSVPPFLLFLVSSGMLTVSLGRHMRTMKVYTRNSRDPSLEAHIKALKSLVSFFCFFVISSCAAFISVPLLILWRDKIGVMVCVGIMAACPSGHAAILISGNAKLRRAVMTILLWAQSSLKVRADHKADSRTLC

| Compound | inhibition at 25 µM [1] [%] | inhibition at 25 µM [2] [%] | inhibition at 25 µM [3] [%] | inhibition at 25 µM [4] [%] | screening result against bitter receptor 54 [5] | inhibition at 25 µM [6] [%] | inhibition at 25 µM [7] [%] | screening result against bitter receptor 65 [8] | inhibition at 25 µM [9] [%] | inhibition at 25 µM [10] [%] | screening result against bitter receptor 55 [11] | inhibition at 25 µM [12] [%] | IC50 [13, 19] [µM] | screening result against bitter receptor 44 [14] | inhibition at 25 µM [15] [%] | screening result against bitter receptor 63 [16] | inhibition at 25 µM [17] [%] | screening result against bitter receptor 67 [18] | IC50 ([13]; Table C, read-out: hT2R14 IC50) [µM] |
| --- | --- | --- | --- | --- | --- | --- | --- | --- | --- | --- | --- | --- | --- | --- | --- | --- | --- | --- | --- |
| CCCOc1ccc(CN(Cc2ccco2)S(=O)(=O)c2ccc(C(=O)O)cc2)cc1 [Example 5-8, 4-(N-(4-propoxybenzyl)-N-(furan-2-ylmethyl)sulfamoyl)benzoic acid] | 60 to 80 | 40 to 60 | 20 to 40 | 40 to 60 | + (20% to 40% inhibition = +) | 20 to 40 | 40 to 60 | ++ (40% to 60% inhibition = ++) | > 80 | 40 to 60 | ++++ (80% or greater inhibition = ++++) | > 80 | 2.5 | ++ (40% to 60% inhibition = ++) | 20 to 40 | ++ (40% to 60% inhibition = ++) |  |  |  |
| COc1ccccc1CN(Cc1ccco1)S(=O)(=O)c1ccc(C(=O)O)cc1 [Example 5-7, 4-(N-(furan-2-ylmethyl)-N-(2-methoxybenzyl)sulfamoyl)benzoic acid] | > 80 | 20 to 40 | 20 to 40 | 20 to 40 |  | 20 to 40 |  |  | 40 to 60 | 40 to 60 | ++++ (80% or greater inhibition = ++++) | > 80 | 12 | ++ (40% to 60% inhibition = ++) |  | ++++ (80% or greater inhibition = ++++) | 20 to 40 | + (20% to 40% inhibition = +) |  |
| CCCN(Cc1ccc(OC)cc1)S(=O)(=O)c1ccc(C(=O)O)cc1 [Example 5-17, 4-(N-(4-methoxybenzyl)-N-propylsulfamoyl)benzoic acid] | > 80 |  | 20 to 40 | 20 to 40 | ++ (40% to 60% inhibition = ++) | 20 to 40 |  | ++ (40% to 60% inhibition = ++) | > 80 | 40 to 60 | ++++ (80% or greater inhibition = ++++) |  | 3.75 | +++ (60% to 80% inhibition = +++) | 20 to 40 |  | 20 to 40 |  |  |
| O=C(O)C1CCC(CN(Cc2ccc(F)cc2)S(=O)(=O)c2cccs2)CC1 (stereo not shown) [Example 5-51, 4-((N-(4-fluorobenzyl)thiophene-2-sulfonamido)methyl)cyclohexanecarboxylic acid] | > 80 | 20 to 40 | 40 to 60 | 20 to 40 |  | 20 to 40 |  | + (20% to 40% inhibition = +) | > 80 | 40 to 60 | +++ (60% to 80% inhibition = +++) | 40 to 60 |  | ++ (40% to 60% inhibition = ++) | 20 to 40 | +++ (60% to 80% inhibition = +++) | 20 to 40 |  | 0.342 |
